We go through eleven compounds from ChEMBL document CHEMBL1201862, “PubChem BioAssay data set” (2004).

Holding throughout (experiment): NCI tumour cell line growth inhibition, 48 h
The subject of assay [1] is NCI-H522.
Assay [2] deals with HCT-116.
The subject of assay [3] is TK-10.
Assay [4] has as its system HOP-62.
Assay [5] relates to HCT-15.
Assay [6] has as its system SN12C.
Assay [7] relates to IGROV-1.
Assay [8] relates to COLO 205.
Assay [9] concerns MDA-N.
For assay [10], the system named is U-251.
The test system of assay [11] is MCF7.
The subject of assay [12] is PC-3.
Assay [13] deals with OVCAR-4.
In assay [14] the test system is SF-295.
Assay [15] deals with NCI-H23.
Assay [16] concerns BT-549.
The subject of assay [17] is SNB-75.
The subject of assay [18] is NCI-H460.
Assay [19] relates to UACC-62.
The subject of assay [20] is MDA-MB-231.

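Compound exposure: 48 hours, 5 concentrations, 96-well plates. Here, GI50 denotes the concentration required for 50% inhibition of growth.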 The source made the active and inactive calls. Cut-off read from the data, not from the text of the source: active = GI50 up to about 1.1 µM and inactive = higher.

Regarding `O=[N+]([O-])c1ccc(-c2nc3cc([N+](=O)[O-])ccc3[nH]2)cc1`, the GI50 was 11.4 µM (inactive) in assay [1]; 19 µM (inactive) in assay [2]; 52.2 µM (inactive) in assay [3]; 31.9 µM (inactive) in assay [4]; 34.9 µM in assay [5]; 23.9 µM (inactive) in assay [6]. Further, the GI50 in assay [7] is 30.5 µM (inactive); in assay [8] it was 14.3 µM (inactive); in [9], 33.2 µM (inactive); in assay [10], 25.4 µM (inactive); in assay [11], 31 µM (inactive); in [12], 16.4 µM (inactive). In addition, the GI50 was 47.2 µM (inactive) in [13]; 20 µM (inactive) in [14]; 21.4 µM (inactive) in assay [15]; 31.2 µM (inactive) in assay [16]; 39.4 µM (inactive) in [17]; 22 µM (inactive) in [18]. Also, in [19], the GI50 is 37 µM (inactive).
As to `Nc1nc(N)c2cc(Sc3ccc4nc(N)nc(N)c4c3)ccc2n1`, the GI50 in assay [2] is 0.2 µM (active); in assay [3], > 100 µM (inactive); in assay [4], > 100 µM (inactive); in assay [5] it was 0.659 µM; in [7], 0.514 µM (active); in [8], 10.9 µM (inactive). The GI50 in [9], in [10], in [20], in assay [13], in [16] and in assay [17] was > 100 µM (inactive) in each case. In addition, in [18], the GI50 was < 0.0145 µM (active).
Take `Cc1cc(C)c(S(=O)(=O)N(CCCCN)OCCCN)c(C)c1`: the GI50 in [1] was 16.2 µM (inactive); in [2] it was 16.7 µM (inactive); in assay [3], 18 µM (inactive); in assay [6], 18.7 µM (inactive); in assay [7], 13.6 µM (inactive); in assay [8], 9.04 µM (inactive). For the same compound, the GI50 is 16.4 µM (inactive) in [9]; 15.4 µM (inactive) in assay [10]; 17.7 µM (inactive) in [11]; 13.3 µM (inactive) in assay [12]; 17.5 µM (inactive) in assay [13]; 19.6 µM (inactive) in [14]. The GI50 is 26.9 µM (inactive) in assay [15]; 19.1 µM (inactive) in [16]; 13.5 µM (inactive) in assay [17]; 19 µM (inactive) in assay [18]; 16.4 µM (inactive) in assay [19].
As to `O=[N+]([O-])c1cccc2nc3ccccc3c(NCCNCCO)c12`, the GI50 in [1] is 0.00109 µM (active); in [2], 0.0197 µM (active); in assay [3], 0.0385 µM (active); in [4] it was 0.0169 µM (active); in [5] it was 0.0405 µM; in assay [6], 0.0122 µM (active). Also, the GI50 in assay [7] is 0.00198 µM (active); in assay [8], 0.00176 µM (active); in [10], 0.0118 µM (active); in assay [20] it was 0.017 µM (active); in assay [11] it was 0.001 µM (active); in assay [12], 0.00245 µM (active). For the same compound, the GI50 in assay [13] was 0.00335 µM (active); in assay [14] it was 0.00425 µM (active); in assay [15], 0.00146 µM (active); in [16] it was 0.00542 µM (active); in [17], 0.0188 µM (active); in assay [18], 0.00184 µM (active). Besides, the GI50 in [19] was 0.01 µM (active).
Regarding `CC1(O)OC(=O)C2=C1CCC1C2CCC2(C)C(O)CCC12` (centres undefined), the GI50 is > 100 µM (inactive) in assay [1]; > 100 µM (inactive) in [2]; > 100 µM (inactive) in assay [3]; > 100 µM (inactive) in assay [4]; more than 100 µM in assay [5]; > 100 µM (inactive) in [6]. Besides, the GI50 in assay [7], in assay [9], in assay [10], in assay [20], in assay [11] and in assay [13] was > 100 µM (inactive) each time. Also, the GI50 in assay [14] was > 100 µM (inactive); in assay [15], > 100 µM (inactive); in [16], > 100 µM (inactive); in assay [18] it was > 100 µM (inactive); in assay [19] it was 46.3 µM (inactive).
Turning to `Cc1cccc(/C=N\NC(=S)N2CCCCC2)n1`, the GI50 in assay [1] was < 0.01 µM (active); in [2] it was < 0.01 µM (active); in assay [3], 0.0156 µM (active); in assay [4] it was 0.0776 µM (active); in [5], 0.0371 µM; in assay [6] it was 0.181 µM (active). Moreover, the GI50 was < 0.01 µM (active) in assay [7]; < 0.01 µM (active) in assay [8]; 0.306 µM (active) in assay [9]; < 0.01 µM (active) in assay [10]; < 0.01 µM (active) in assay [20]; < 0.01 µM (active) in [11]. Also, the GI50 in assay [12] was 0.0435 µM (active); in [13], < 0.01 µM (active); in assay [14] it was 0.211 µM (active); in assay [15], 0.0689 µM (active); in assay [17] it was 0.611 µM (active); in assay [18], 0.22 µM (active). Moreover, the GI50 in assay [19] is 0.383 µM (active).
On to `C=C(C)C(=O)[C@@]12C(=O)[C@@H](C)CC[C@H]1[C@H](C)C[C@@H]2C=C(C)C`, for which the GI50 in assay [1] was 14.6 µM (inactive); in assay [2], 14.9 µM (inactive); in [3], 47.6 µM (inactive); in [4], 34.4 µM (inactive); in [5] it was 19.9 µM; in assay [6] it was 20.8 µM (inactive). For the same compound, the GI50 in assay [7] was 27.5 µM (inactive); in assay [8] it was 18.8 µM (inactive); in [9] it was 24.1 µM (inactive); in assay [10], 23.6 µM (inactive); in assay [20], 21.9 µM (inactive); in [11] it was 23.9 µM (inactive). Besides, the GI50 was 24 µM (inactive) in [12]; 28.8 µM (inactive) in assay [13]; 33.9 µM (inactive) in assay [14]; 15.4 µM (inactive) in assay [15]; 34.8 µM (inactive) in assay [17]; 22.9 µM (inactive) in assay [19].
On to `Clc1ccc(C(SCc2ccccc2)SCc2ccccc2)cc1`, for which the GI50 is > 10 µM (inactive) in assay [1]; > 10 µM (inactive) in assay [2]; > 10 µM (inactive) in [3]; > 10 µM (inactive) in [4]; more than 10 µM in [5]; > 10 µM (inactive) in [6]. In addition, the GI50 in [7], in assay [8], in assay [9], in assay [10], in assay [20] and in assay [11] was > 10 µM (inactive) each time. The GI50 in assay [12], in [13], in [14], in assay [15], in [17] and in assay [18] was > 10 µM (inactive) throughout. In addition, the GI50 in assay [19] was > 10 µM (inactive).
Regarding `COC(=O)C(C(=O)OC)C1CC(=O)c2c(Br)sc(Br)c21` (centres undefined), the GI50 in assay [2] is 14.6 µM (inactive); in assay [3], 31.5 µM (inactive); in assay [4], 17.3 µM (inactive); in [5], 9.44 µM; in [6], 14.7 µM (inactive); in [7], 14.1 µM (inactive). The GI50 in [8] was 15.2 µM (inactive); in assay [9] it was 23.4 µM (inactive); in [10] it was 16.3 µM (inactive); in assay [11], 13.6 µM (inactive); in [12], 14.2 µM (inactive); in [13], 13 µM (inactive). Further, the GI50 was 21.8 µM (inactive) in [14]; 12.8 µM (inactive) in assay [15]; 18.4 µM (inactive) in assay [16]; 22.9 µM (inactive) in assay [17]; 18.6 µM (inactive) in assay [18]; 13.5 µM (inactive) in assay [19].
For the compound `c1ccc(C(NC2=NCCO2)C2CC2)cc1` (centres undefined), the GI50 in [1] was > 100 µM (inactive); in assay [2] it was 82.8 µM (inactive); in assay [3], > 100 µM (inactive); in assay [4], > 100 µM (inactive); in assay [5] it was more than 100 µM; in assay [6] it was > 100 µM (inactive). Besides, the GI50 in [7], in assay [8], in assay [9], in [10], in [20] and in assay [11] was > 100 µM (inactive) throughout. The GI50 was > 100 µM (inactive) in assay [12]; > 100 µM (inactive) in assay [13]; > 100 µM (inactive) in assay [14]; > 100 µM (inactive) in assay [15]; > 100 µM (inactive) in [17]; 75.2 µM (inactive) in assay [18]. Further, the GI50 in [19] is > 100 µM (inactive).
With `O=c1c(-c2ccc(O)cc2)coc2cc(O)cc(O)c12` [GENISTEIN], the GI50 in assay [1] is 36.4 µM (inactive); in [3], > 100 µM (inactive); in [5] it was 72.9 µM; in [6], 52.5 µM (inactive); in assay [7], 71.6 µM (inactive); in assay [8], > 100 µM (inactive). The GI50 was > 100 µM (inactive) in [9]; > 100 µM (inactive) in assay [10]; > 100 µM (inactive) in assay [11]; > 100 µM (inactive) in assay [12]; > 100 µM (inactive) in assay [13]; 55 µM (inactive) in [14]. Further, the GI50 in [15] was > 100 µM (inactive); in [16] it was 88.3 µM (inactive); in [18] it was 42 µM (inactive); in [19] it was > 100 µM (inactive).
